{"source": "paper PMC5218480", "about": "(PLoS ONE, 2017)", "system": "MV-4-11 cells", "assay": "Gene expression microarray analysis (Affymetrix PrimeView) and GSEA", "assay_type": "cell-based, human", "set-up": "RFU PODN (11730768_x_at) / Fold change /veh PODN (11730768_x_at) / RFU LINC00158 (11744669_a_at) / Fold change /veh LINC00158 (11744669_a_at) / RFU DUSP10 (11751237_a_at) / Fold change /veh DUSP10 (11751237_a_at) / RFU ID3 (11757404_x_at) / Fold change /veh ID3 (11757404_x_at) / RFU PLEKHG5 (11737974_s_at) / Fold change /veh PLEKHG5 (11737974_s_at) / RFU LRRC4B (11730491_at) / Fold change /veh LRRC4B (11730491_at) / RFU GIMAP4 (11747438_a_at) / Fold change /veh GIMAP4 (11747438_a_at) / RFU KRT8 (11758183_x_at) / Fold change /veh KRT8 (11758183_x_at) / RFU CNN1 (11734310_a_at) / Fold change /veh CNN1 (11734310_a_at) / RFU VPS37D (11726825_at) / Fold change /veh VPS37D (11726825_at) / RFU C10orf10 (11716522_x_at) / Fold change /veh C10orf10 (11716522_x_at) / RFU KIR2DL2 /// KIR2DL4 /// KIR2DL5A /// KIR2DL5B /// KIR2DS1 /// KIR2DS2 /// KIR2DS3 /// KIR2DS4 /// KIR3DL3 /// KIR3DL3 /// KIR3DS1 (11738374_at) / Fold change /veh KIR2DL2 /// KIR2DL4 /// KIR2DL5A /// KIR2DL5B /// KIR2DS1 /// KIR2DS2 /// KIR2DS3 /// KIR2DS4 /// KIR3DL3 /// KIR3DL3 /// KIR3DS1 (11738374_at) / RFU C1QL1 (11718748_at) / Fold change /veh C1QL1 (11718748_at) / RFU TMPRSS4 (11747572_a_at) / Fold change /veh TMPRSS4 (11747572_a_at) / RFU HAMP (11756126_x_at) / Fold change /veh HAMP (11756126_x_at) / RFU RNFT2 (11725882_a_at) / Fold change /veh RNFT2 (11725882_a_at) / RFU NR4A2 (11747474_a_at) / Fold change /veh NR4A2 (11747474_a_at) / RFU ABCC12 (11746883_a_at) / Fold change /veh ABCC12 (11746883_a_at) / RFU TMEM136 (11760407_x_at) / Fold change /veh TMEM136 (11760407_x_at) / RFU CLDN22 /// WWC2 (11732394_at) / Fold change /veh CLDN22 /// WWC2 (11732394_at) / RFU HLA-DPB1 (11760878_x_at) / Fold change /veh HLA-DPB1 (11760878_x_at) / RFU SPINT1 (11716480_a_at) / Fold change /veh SPINT1 (11716480_a_at) / RFU GAP43 (11754022_s_at) / Fold change /veh GAP43 (11754022_s_at) / RFU A4GNT (11735810_at) / Fold change /veh A4GNT (11735810_at) / RFU PRB3 (11715151_x_at) / Fold change /veh PRB3 (11715151_x_at) / RFU TUBB4B (11761932_at) / Fold change /veh TUBB4B (11761932_at) / RFU CAPN14 (11732068_a_at) / Fold change /veh CAPN14 (11732068_a_at) / RFU TMCC2 (11721928_a_at) / Fold change /veh TMCC2 (11721928_a_at) / RFU IRGQ (11745062_a_at) / Fold change /veh IRGQ (11745062_a_at) / RFU FAM174B (11720279_a_at) / Fold change /veh FAM174B (11720279_a_at) / RFU TMPRSS4 (11748680_a_at) / Fold change /veh TMPRSS4 (11748680_a_at) / RFU FAM212B (11763350_a_at) / Fold change /veh FAM212B (11763350_a_at) / RFU PLEKHG5 (11743358_a_at) / Fold change /veh PLEKHG5 (11743358_a_at) / RFU ZSCAN30 (11745921_a_at) / Fold change /veh ZSCAN30 (11745921_a_at) / RFU CMKLR1 (11741424_a_at) / Fold change /veh CMKLR1 (11741424_a_at) / RFU LOC101060620 /// MAPK8IP1 (11723275_at) / Fold change /veh LOC101060620 /// MAPK8IP1 (11723275_at) / RFU SPTSSB (11747773_x_at) / Fold change /veh SPTSSB (11747773_x_at) / RFU PRSS12 (11739890_at) / Fold change /veh PRSS12 (11739890_at) / RFU BIN1 (11741810_x_at) / Fold change /veh BIN1 (11741810_x_at) / RFU WNT11 (11732464_a_at) / Fold change /veh WNT11 (11732464_a_at) / RFU C10orf10 (11716521_a_at) / Fold change /veh C10orf10 (11716521_a_at) / RFU C5orf56 (11738089_at) / Fold change /veh C5orf56 (11738089_at) / RFU CYB561 (11721691_x_at) / Fold change /veh CYB561 (11721691_x_at) / RFU ANKRD19P (11752326_a_at) / Fold change /veh ANKRD19P (11752326_a_at) / RFU OR2T12 /// OR2T33 /// OR2T8 (11738714_s_at) / Fold change /veh OR2T12 /// OR2T33 /// OR2T8 (11738714_s_at) / RFU VCAN (11748164_a_at) / Fold change /veh VCAN (11748164_a_at) / RFU JSRP1 (11732532_at) / Fold change /veh JSRP1 (11732532_at) / RFU KRTAP10-11 (11738290_x_at) / Fold change /veh KRTAP10-11 (11738290_x_at) / RFU MYO3A (11730013_a_at) / Fold change /veh MYO3A (11730013_a_at) / RFU EBF3 (11725865_a_at) / Fold change /veh EBF3 (11725865_a_at) / RFU CAMK2N1 (11719241_x_at) / Fold change /veh CAMK2N1 (11719241_x_at) / RFU C5orf56 (11738088_a_at) / Fold change /veh C5orf56 (11738088_a_at) / RFU OLFML3 (11715873_a_at) / Fold change /veh OLFML3 (11715873_a_at) / RFU LOC100653217 /// NTM (11731650_a_at) / Fold change /veh LOC100653217 /// NTM (11731650_a_at) / RFU MAPK11 (11762145_a_at) / Fold change /veh MAPK11 (11762145_a_at) / RFU FIZ1 (11724087_x_at) / Fold change /veh FIZ1 (11724087_x_at) / RFU OASL (11726364_x_at) / Fold change /veh OASL (11726364_x_at) / RFU SOX15 (11748057_x_at) / Fold change /veh SOX15 (11748057_x_at) / RFU CD79A (11719716_a_at) / Fold change /veh CD79A (11719716_a_at) / RFU HIST1H1D (11736915_at) / Fold change /veh HIST1H1D (11736915_at) / RFU CASKIN2 (11723855_a_at) / Fold change /veh CASKIN2 (11723855_a_at) / RFU LOC730098 (11760151_x_at) / Fold change /veh LOC730098 (11760151_x_at) / RFU OR4N2 (11742367_at) / Fold change /veh OR4N2 (11742367_at) / RFU PRRT2 (11749266_a_at) / Fold change /veh PRRT2 (11749266_a_at) / RFU SNX32 (11753110_a_at) / Fold change /veh SNX32 (11753110_a_at) / RFU CDHR5 (11726645_a_at) / Fold change /veh CDHR5 (11726645_a_at) / RFU RCAN1 (11760418_a_at) / Fold change /veh RCAN1 (11760418_a_at) / RFU FAM167A (11723789_a_at) / Fold change /veh FAM167A (11723789_a_at) / RFU FAM26E (11764081_at) / Fold change /veh FAM26E (11764081_at) / RFU ISYNA1 (11749810_s_at) / Fold change /veh ISYNA1 (11749810_s_at) / RFU ACY1 (11761880_at) / Fold change /veh ACY1 (11761880_at) / RFU 11764098_at / Fold change /veh 11764098_at / RFU SAMD14 (11745864_x_at) / Fold change /veh SAMD14 (11745864_x_at) / RFU NPB (11741838_a_at) / Fold change /veh NPB (11741838_a_at) / RFU TMPRSS6 (11731388_a_at) / Fold change /veh TMPRSS6 (11731388_a_at) / RFU KRTAP10-2 (11738614_at) / Fold change /veh KRTAP10-2 (11738614_at) / RFU ARHGAP8 /// PRR5-ARHGAP8 (11727945_x_at) / Fold change /veh ARHGAP8 /// PRR5-ARHGAP8 (11727945_x_at) / RFU KRTAP5-7 /// NADSYN1 (11734609_at) / Fold change /veh KRTAP5-7 /// NADSYN1 (11734609_at) / RFU RASL12 (11751679_a_at) / Fold change /veh RASL12 (11751679_a_at) / RFU CDKN2B (11736163_a_at) / Fold change /veh CDKN2B (11736163_a_at) / RFU PRF1 (11729649_at) / Fold change /veh PRF1 (11729649_at) / RFU, ZNF638 /// ZNF638-IT1 / Fold change vs veh, ZNF638 /// ZNF638-IT1 / RFU, PANK3 / Fold change vs veh, PANK3 / RFU, SH3YL1 / Fold change vs veh, SH3YL1 / RFU, ZEB2 / Fold change vs veh, ZEB2 / RFU, NRIP1 / Fold change vs veh, NRIP1 / RFU, PTTG1IP / Fold change vs veh, PTTG1IP / RFU, CAPN2 / Fold change vs veh, CAPN2 / RFU, MED14 / Fold change vs veh, MED14 / RFU, SNORA58 / Fold change vs veh, SNORA58 / RFU, C1orf63 / Fold change vs veh, C1orf63 / RFU, LRRFIP1 / Fold change vs veh, LRRFIP1 / RFU, NDUFAF7 / Fold change vs veh, NDUFAF7 / RFU, SLC12A2 / Fold change vs veh, SLC12A2 / RFU, IBTK / Fold change vs veh, IBTK / RFU, ESF1 / Fold change vs veh, ESF1 / Fold change vs veh, TMEM50B / RFU, TAOK1 / Fold change vs veh, TAOK1 / RFU, ACBD3 / Fold change vs veh, ACBD3 / RFU, TMA16 / Fold change vs veh, TMA16 / RFU, RWDD3 / Fold change vs veh, RWDD3 / RFU, BCAT1 / Fold change vs veh, BCAT1 / RFU, EDEM3 / Fold change vs veh, EDEM3 / RFU, TMEM33 / Fold change vs veh, TMEM33 / RFU, WDR75 / Fold change vs veh, WDR75 / RFU, AHCTF1 / Fold change vs veh, AHCTF1 / RFU, TFRC / Fold change vs veh, TFRC / RFU, ZDHHC17 / Fold change vs veh, ZDHHC17 / RFU, NOM1 / Fold change vs veh, NOM1 / RFU, ARL8B / Fold change vs veh, ARL8B / RFU, ZBTB11 / Fold change vs veh, ZBTB11 / RFU, TAMM41 / Fold change vs veh, TAMM41 / RFU, KIAA1704 /// LOC100996395 / Fold change vs veh, KIAA1704 /// LOC100996395 / RFU, ING1 / Fold change vs veh, ING1 / RFU, TRMT61B / Fold change vs veh, TRMT61B / RFU, FUBP3 / Fold change vs veh, FUBP3 / RFU, TP53 / Fold change vs veh, TP53 / RFU, TNKS2 / Fold change vs veh, TNKS2 / RFU, ZFP14 / Fold change vs veh, ZFP14 / RFU, ACTR2 / Fold change vs veh, ACTR2 / RFU, PPP3R1 / Fold change vs veh, PPP3R1 / RFU, PIK3R1 / Fold change vs veh, PIK3R1 / RFU, HNRNPA1 / Fold change vs veh, HNRNPA1 / RFU, RNF170 / Fold change vs veh, RNF170 / RFU, ZNF28 / Fold change vs veh, ZNF28 / RFU, RNGTT / Fold change vs veh, RNGTT / RFU, OGT / Fold change vs veh, OGT / RFU, BRD1 / Fold change vs veh, BRD1 / RFU, MARS / Fold change vs veh, MARS / RFU, ZNF655 / Fold change vs veh, ZNF655 / RFU, FAHD1 / Fold change vs veh, FAHD1 / RFU, BDP1 / Fold change vs veh, BDP1 / RFU, LRRCC1 / Fold change vs veh, LRRCC1 / RFU, ARID1A / Fold change vs veh, ARID1A / RFU, ZNF146 / Fold change vs veh, ZNF146 / RFU, ZNF330 / Fold change vs veh, ZNF330 / RFU, GPN3 / Fold change vs veh, GPN3 / RFU, C9orf123 / Fold change vs veh, C9orf123 / RFU, N4BP2L2 / Fold change vs veh, N4BP2L2 / RFU, ARFIP1 / Fold change vs veh, ARFIP1 / RFU, FAM179B / Fold change vs veh, FAM179B / RFU, BCL10 / Fold change vs veh, BCL10 / RFU, UHRF1BP1L / Fold change vs veh, UHRF1BP1L / RFU, BET1 / Fold change vs veh, BET1 / RFU, CNOT2 / Fold change vs veh, CNOT2 / RFU, ZNF268 / Fold change vs veh, ZNF268 / Fold change vs veh, ZNF507 / RFU, DGCR2 / Fold change vs veh, DGCR2 / RFU, WDSUB1 / Fold change vs veh, WDSUB1 / Fold change vs veh, HSP90B1 /// MIR3652 / RFU, ADSS / Fold change vs veh, ADSS / RFU, GK / Fold change vs veh, GK / RFU, ZNF148 / Fold change vs veh, ZNF148 / RFU, TAF9 / Fold change vs veh, TAF9 / RFU, SLC1A5 / Fold change vs veh, SLC1A5 / RFU, SLMO2 / Fold change vs veh, SLMO2 / RFU, ABCC4 / Fold change vs veh, ABCC4 / RFU, LOC101060439 /// RAP1B / Fold change vs veh, LOC101060439 /// RAP1B / RFU, RFX7 / Fold change vs veh, RFX7 / RFU, GTPBP10 / Fold change vs veh, GTPBP10 / RFU, CNEP1R1 / Fold change vs veh, CNEP1R1 / RFU, BIVM-ERCC5 /// ERCC5 / Fold change vs veh, BIVM-ERCC5 /// ERCC5 / RFU, ILF3 / Fold change vs veh, ILF3 / RFU 11762660_at / Fold change /veh 11762660_at / RFU VCAN (11757783_s_at) / Fold change /veh VCAN (11757783_s_at) / RFU DDX43 (11728927_at) / Fold change /veh DDX43 (11728927_at) / RFU KRT8 (11758188_x_at) / Fold change /veh KRT8 (11758188_x_at) / RFU NKD1 (11759106_at) / Fold change /veh NKD1 (11759106_at) / RFU SRD5A1 (11742802_a_at) / Fold change /veh SRD5A1 (11742802_a_at) / RFU TPSAB1 /// TPSB2 (11721975_s_at) / Fold change /veh TPSAB1 /// TPSB2 (11721975_s_at) / RFU GSTM3 (11746129_a_at) / Fold change /veh GSTM3 (11746129_a_at) / RFU IL23R (11737362_x_at) / Fold change /veh IL23R (11737362_x_at) / RFU TMEM51 (11727254_a_at) / Fold change /veh TMEM51 (11727254_a_at) / RFU PIWIL2 (11732686_x_at) / Fold change /veh PIWIL2 (11732686_x_at) / RFU ORM1 (11744905_x_at) / Fold change /veh ORM1 (11744905_x_at) / RFU CCDC152 (11743942_at) / Fold change /veh CCDC152 (11743942_at) / RFU ECM1 (11717891_a_at) / Fold change /veh ECM1 (11717891_a_at) / RFU IL23R (11748794_a_at) / Fold change /veh IL23R (11748794_a_at) / RFU TNFAIP8L3 (11732012_x_at) / Fold change /veh TNFAIP8L3 (11732012_x_at) / RFU MBOAT4 (11741988_at) / Fold change /veh MBOAT4 (11741988_at) / RFU 11764193_at / Fold change /veh 11764193_at / RFU TMEM53 (11763286_at) / Fold change /veh TMEM53 (11763286_at) / RFU MAGEB2 (11727129_at) / Fold change /veh MAGEB2 (11727129_at) / RFU TMEM200A (11744735_a_at) / Fold change /veh TMEM200A (11744735_a_at) / RFU CCDC152 (11751479_a_at) / Fold change /veh CCDC152 (11751479_a_at) / RFU FAM211A (11726209_a_at) / Fold change /veh FAM211A (11726209_a_at) / RFU RGS16 (11746705_a_at) / Fold change /veh RGS16 (11746705_a_at) / RFU VCAN (11755009_s_at) / Fold change /veh VCAN (11755009_s_at) / RFU RHOB (11743442_s_at) / Fold change /veh RHOB (11743442_s_at) / RFU RGS16 (11720943_a_at) / Fold change /veh RGS16 (11720943_a_at) / RFU RGS16 (11720944_at) / Fold change /veh RGS16 (11720944_at) / RFU, VPS4B / Fold change vs veh, VPS4B / RFU, CREB1 / Fold change vs veh, CREB1 / RFU, DNAJC13 / Fold change vs veh, DNAJC13 / RFU, GNAQ / Fold change vs veh, GNAQ / RFU, CDK5R1 / Fold change vs veh, CDK5R1 / RFU, ZRANB3 / Fold change vs veh, ZRANB3 / RFU, CUL4A / Fold change vs veh, CUL4A / RFU, CCNY / Fold change vs veh, CCNY / RFU, UFL1 / Fold change vs veh, UFL1 / RFU, COG3 / Fold change vs veh, COG3 / RFU, DIAPH2 / Fold change vs veh, DIAPH2 / RFU, SKA2 / Fold change vs veh, SKA2 / RFU, AFF3 / Fold change vs veh, AFF3 / RFU, LMF1 / Fold change vs veh, LMF1 / RFU, IPO11 / Fold change vs veh, IPO11 / RFU, DFFB / Fold change vs veh, DFFB / RFU, FOXP1 / Fold change vs veh, FOXP1 / RFU, CARD8 / Fold change vs veh, CARD8 / RFU, STRN3 / Fold change vs veh, STRN3 / RFU, ADK / Fold change vs veh, ADK / RFU, RASSF2 / Fold change vs veh, RASSF2 / RFU, WIPF1 / Fold change vs veh, WIPF1 / RFU, LARP1B / Fold change vs veh, LARP1B / RFU, RASA1 / Fold change vs veh, RASA1 / RFU, RB1 / Fold change vs veh, RB1 / RFU, PPFIA1 / Fold change vs veh, PPFIA1 / RFU, MAT2A / Fold change vs veh, MAT2A / RFU, CCT5 / Fold change vs veh, CCT5 / RFU, WDR92 / Fold change vs veh, WDR92 / RFU, CUX1 / Fold change vs veh, CUX1 / RFU, TTC7A / Fold change vs veh, TTC7A / RFU, TMEM135 / Fold change vs veh, TMEM135 / RFU, DEPTOR / Fold change vs veh, DEPTOR / RFU, CPM / Fold change vs veh, CPM / RFU, DNAJB6 / Fold change vs veh, DNAJB6 / RFU, CACNA2D3 / Fold change vs veh, CACNA2D3 / RFU, DTX4 / Fold change vs veh, DTX4 / RFU, TFCP2 / Fold change vs veh, TFCP2 / RFU, GMCL1 /// GMCL1P1 / Fold change vs veh, GMCL1 /// GMCL1P1 / RFU, AEBP2 / Fold change vs veh, AEBP2 / RFU, SNHG1 /// SNORD22 /// SNORD25 /// SNORD26 /// SNORD27 /// SNORD28 /// SNORD29 /// SNORD31 / Fold change vs veh, SNHG1 /// SNORD22 /// SNORD25 /// SNORD26 /// SNORD27 /// SNORD28 /// SNORD29 /// SNORD31 / Fold change (Aza/veh), C12orf56 (ProbeSet 11735607_a_at) / Fold change (ACY-1035/veh), C12orf56 (ProbeSet 11735607_a_at) / Fold change (Aza/veh), FGFR1OP (ProbeSet 11751329_s_at) / Fold change (ACY-1035/veh), FGFR1OP (ProbeSet 11751329_s_at) / Fold change (Aza/veh), VPS36 (ProbeSet 11739960_a_at) / Fold change (ACY-1035/veh), VPS36 (ProbeSet 11739960_a_at) / RFU SYPL1 (11715823_x_at) / Fold change /veh SYPL1 (11715823_x_at) / RFU IGFBP7 (11715501_s_at) / Fold change /veh IGFBP7 (11715501_s_at) / RFU REEP3 (11722064_at) / Fold change /veh REEP3 (11722064_at) / RFU IGLL1 (11728026_x_at) / Fold change /veh IGLL1 (11728026_x_at): dose or concentration left out as unconfirmed", "conditions": "ProbeSet 11764057_s_at; LIST B", "data": [{"smiles": "Nc1ccc(-c2cccs2)cc1NC(=O)c1ccc2c(c1)cc(C1CC1)n2CCN1CCOCC1", "note": "[ACY-1035]", "values": [{"measurement": "Fold change vs veh, C1orf63", "value": 0.95}]}]}
